Measurements as given in patent publication US20250381242A1 (INVAIO SCIENCES, INC., priority 2024, published 2025).
Residues, ends and D or L forms follow the SMILES beside them. No end group written: not given here.

Tests used:
L. crescens = settings: 10 μM
X. citri = assay: Bacterial growth inhibition by OD600 absorbance, X. citri; format: cell-based, X. citri subsp. citri (ATCC 49118); settings: peptide 10 μM, 24 hours at 30° C., OD 600 nm
E. coli = assay: Bacterial growth inhibition by OD600 absorbance, E. coli; format: cell-based, E. coli (DH5-alpha); settings: peptide 10 μM, 24 hours at 37° C., OD 600 nm
Procedure, shortened: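 Percent inhibition was calculated from initial and 24 h OD600 readings against DMSO (0.1%) and antibiotic controls. Cultures received 10 μM peptide and were incubated at 30° C. (X. citri) or 37° C. (E. coli).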

A. tumefaciens = settings: 24 h, 10 μM
E. amylovora = settings: 24 h, 10 μM

IWSFLIKAATKLLPSLFGGGKKDS [compound 39]
growth inhibition, L. crescens (L. crescens): 92.47%
growth inhibition, X. citri (X. citri): 100.00%
growth inhibition, E. coli (E. coli): 100.00%
growth inhibition, A. tumefaciens (A. tumefaciens): <90%
growth inhibition, E. amylovora (E. amylovora): <90%

GIMSSLMKKLKKIIAK [compound 99]
growth inhibition, L. crescens (L. crescens): <90%
growth inhibition, X. citri (X. citri): <90%
growth inhibition, E. coli (E. coli): <90%
growth inhibition, A. tumefaciens (A. tumefaciens): 98.76%
growth inhibition, E. amylovora (E. amylovora): 100.00%

LVQRGRFGRFLKKVRRFIPKVIIAAQIGSRFG [compound 6]
growth inhibition, L. crescens (L. crescens): <90%
growth inhibition, X. citri (X. citri): 100.00%
growth inhibition, E. coli (E. coli): 99.36%
growth inhibition, A. tumefaciens (A. tumefaciens): 100.00%
growth inhibition, E. amylovora (E. amylovora): 98.64%

KWAVRIIRKFIKGFIS [compound 88]
growth inhibition, L. crescens (L. crescens): <90%
growth inhibition, X. citri (X. citri): <90%
growth inhibition, E. coli (E. coli): 96.20%
growth inhibition, A. tumefaciens (A. tumefaciens): 100.00%
growth inhibition, E. amylovora (E. amylovora): 100.00%

KFWSLLKKALRLWANVL [compound 76]
growth inhibition, L. crescens (L. crescens): 99.76%
growth inhibition, X. citri (X. citri): 100.00%
growth inhibition, E. coli (E. coli): 100.00%
growth inhibition, A. tumefaciens (A. tumefaciens): 100.00%
growth inhibition, E. amylovora (E. amylovora): 100.00%

AFWKKFFKKFFKSAKKFG [compound 67]
growth inhibition, L. crescens (L. crescens): <90%
growth inhibition, X. citri (X. citri): 100.00%
growth inhibition, E. coli (E. coli): 100.00%
growth inhibition, A. tumefaciens (A. tumefaciens): 99.57%
growth inhibition, E. amylovora (E. amylovora): 100.00%

GWKKWLRKGAKHLGQAAIKGLAS [compound 46]
growth inhibition, L. crescens (L. crescens): <90%
growth inhibition, X. citri (X. citri): 100.00%
growth inhibition, E. coli (E. coli): 100.00%
growth inhibition, A. tumefaciens (A. tumefaciens): 100.00%
growth inhibition, E. amylovora (E. amylovora): 100.00%

LRFLKKALKKLF [compound 129]
growth inhibition, L. crescens (L. crescens): <90%
growth inhibition, X. citri (X. citri): <90%
growth inhibition, E. coli (E. coli): <90%
growth inhibition, A. tumefaciens (A. tumefaciens): 98.87%
growth inhibition, E. amylovora (E. amylovora): 93.29%

GLLKKWLKKWKEFKRIVGY [compound 57]
growth inhibition, L. crescens (L. crescens): <90%
growth inhibition, X. citri (X. citri): 100.00%
growth inhibition, E. coli (E. coli): 100.00%
growth inhibition, A. tumefaciens (A. tumefaciens): 99.99%
growth inhibition, E. amylovora (E. amylovora): 100.00%

KKFLHSAKKWLKAFVKLFKNW [SEQ ID NO: 33]
growth inhibition, L. crescens (L. crescens): greater than 90%
growth inhibition, A. tumefaciens (A. tumefaciens): greater than 90%

GILSKLGKALKKAAKHAAKA [compound 82]
growth inhibition, L. crescens (L. crescens): <90%
growth inhibition, X. citri (X. citri): <90%
growth inhibition, E. coli (E. coli): <90%
growth inhibition, A. tumefaciens (A. tumefaciens): <90%
growth inhibition, E. amylovora (E. amylovora): 100.00%

KWLKKWLKKWLK [compound 103]
growth inhibition, L. crescens (L. crescens): <90%
growth inhibition, X. citri (X. citri): <90%
growth inhibition, E. coli (E. coli): 98.34%
growth inhibition, A. tumefaciens (A. tumefaciens): 100.00%
growth inhibition, E. amylovora (E. amylovora): 100.00%

GWKDWAKKAGGWLKKKGPGMAKAALKAAMQ [compound 2]
growth inhibition, L. crescens (L. crescens): <90%
growth inhibition, X. citri (X. citri): 100.00%
growth inhibition, E. coli (E. coli): <90%
growth inhibition, A. tumefaciens (A. tumefaciens): 100.00%
growth inhibition, E. amylovora (E. amylovora): 100.00%

GIKDLLKGAAKALVKTVLK [compound 87]
growth inhibition, L. crescens (L. crescens): <90%
growth inhibition, X. citri (X. citri): <90%
growth inhibition, E. coli (E. coli): <90%
growth inhibition, A. tumefaciens (A. tumefaciens): 98.43%
growth inhibition, E. amylovora (E. amylovora): <90%

WWKAAAKAAAKWW [compound 117]
growth inhibition, L. crescens (L. crescens): <90%
growth inhibition, X. citri (X. citri): 100.00%
growth inhibition, E. coli (E. coli): <90%
growth inhibition, A. tumefaciens (A. tumefaciens): 99.97%
growth inhibition, E. amylovora (E. amylovora): 99.79%

CSCC[C@H](NC(=O)CNC(=O)[C@H](C)NC(=O)[C@H](CCC(=O)O)NC(=O)[C@H](CCCCN)NC(=O)[C@H](C)NC(=O)[C@@H](NC(=O)CNC(=O)[C@H](CCCCN)NC(=O)[C@H](CC(C)C)NC(=O)[C@H](CC(C)C)NC(=O)[C@H](CC(=O)O)NC(=O)CNC(=O)[C@H](Cc1ccccc1)NC(=O)[C@H](C)NC(=O)CN)C(C)C)C(=O)N[C@@H](CCCCN)C(=O)N[C@@H](CC(C)C)C(=O)N[C@@H](CC(C)C)C(=O)N[C@@H](CC(N)=O)C(=O)N[C@@H](CCSC)C(=O)N[C@@H](C)C(=O)N[C@@H](CCC(N)=O)C(=O)N[C@@H](CS)C(=O)N[C@@H](CCCCN)C(=O)N[C@@H](CC(C)C)C(=O)N[C@@H](CO)C(=O)NCC(=O)N[C@@H](CCCCN)C(=O)N[C@@H](CS)C(=O)O [compound 19] (H-GAFGDLLKGVAKEAGMKLLNMAQCKLSGKC-OH; N-terminus and C-terminus assumed)
growth inhibition, L. crescens (L. crescens): <90%
growth inhibition, A. tumefaciens (A. tumefaciens): <90%
growth inhibition, E. amylovora (E. amylovora): <90%

GLLKKIAKKAKKALKKLGY [compound 74]
growth inhibition, L. crescens (L. crescens): <90%
growth inhibition, X. citri (X. citri): 100.00%
growth inhibition, E. coli (E. coli): <90%
growth inhibition, A. tumefaciens (A. tumefaciens): 100.00%
growth inhibition, E. amylovora (E. amylovora): 100.00%

GYNYAKKLANLAKKFANALW [compound 66]
growth inhibition, L. crescens (L. crescens): <90%
growth inhibition, X. citri (X. citri): 100.00%
growth inhibition, E. coli (E. coli): <90%
growth inhibition, A. tumefaciens (A. tumefaciens): 99.99%
growth inhibition, E. amylovora (E. amylovora): 97.23%

FQRYFHRYARFLAKIWKG [compound 62]
growth inhibition, L. crescens (L. crescens): <90%
growth inhibition, X. citri (X. citri): 100.00%
growth inhibition, E. coli (E. coli): <90%
growth inhibition, A. tumefaciens (A. tumefaciens): 100.00%
growth inhibition, E. amylovora (E. amylovora): 100.00%

IKKILSKIKKLLK [compound 122]
growth inhibition, L. crescens (L. crescens): <90%
growth inhibition, X. citri (X. citri): 100.00%
growth inhibition, E. coli (E. coli): <90%
growth inhibition, A. tumefaciens (A. tumefaciens): 97.95%
growth inhibition, E. amylovora (E. amylovora): 93.74%

LHRLVKLVAALLRGYASKVDTH [compound 53]
growth inhibition, L. crescens (L. crescens): <90%
growth inhibition, X. citri (X. citri): 100.00%
growth inhibition, E. coli (E. coli): 100.00%
growth inhibition, A. tumefaciens (A. tumefaciens): 100.00%
growth inhibition, E. amylovora (E. amylovora): 100.00%

ALWKTLLKHVGKAAGKAALNAVTDMVNQ [compound 25]
growth inhibition, L. crescens (L. crescens): <90%
growth inhibition, X. citri (X. citri): 100.00%
growth inhibition, E. coli (E. coli): 100.00%
growth inhibition, A. tumefaciens (A. tumefaciens): 100.00%
growth inhibition, E. amylovora (E. amylovora): 100.00%

KILKRLAAKIKKIL [compound 113]
growth inhibition, L. crescens (L. crescens): <90%
growth inhibition, X. citri (X. citri): 100.00%
growth inhibition, E. coli (E. coli): <90%
growth inhibition, A. tumefaciens (A. tumefaciens): <90%
growth inhibition, E. amylovora (E. amylovora): <90%

GWWRRTVDKVRNAGRKVAGFASKACGALGH [compound 13]
growth inhibition, L. crescens (L. crescens): 100.00%
growth inhibition, X. citri (X. citri): 100.00%
growth inhibition, E. coli (E. coli): 100.00%
growth inhibition, A. tumefaciens (A. tumefaciens): 100.00%
growth inhibition, E. amylovora (E. amylovora): 100.00%

KFWSLLKKALRLWANVL [SEQ ID NO: 76]
growth inhibition, L. crescens (L. crescens): greater than 90%
growth inhibition, A. tumefaciens (A. tumefaciens): greater than 90%
growth inhibition, E. amylovora (E. amylovora): greater than 90%

GWWRRTVDKVRNAGRKVAGFASKACGALGH [SEQ ID NO: 13]
growth inhibition, L. crescens (L. crescens): greater than 90%
growth inhibition, A. tumefaciens (A. tumefaciens): greater than 90%
growth inhibition, E. amylovora (E. amylovora): greater than 90%

KWKSFIKNLEKVLKKGPILANLVSIV [SEQ ID NO: 23]
growth inhibition, L. crescens (L. crescens): greater than 90%
growth inhibition, A. tumefaciens (A. tumefaciens): greater than 90%
growth inhibition, E. amylovora (E. amylovora): greater than 90%

IWSFLIKAATKLLPSLFGGGKKDS [SEQ ID NO: 39]
growth inhibition, L. crescens (L. crescens): greater than 90%

KRIVARIKAFLR [compound 130]
growth inhibition, X. citri (X. citri): <90%
growth inhibition, E. coli (E. coli): <90%
growth inhibition, A. tumefaciens (A. tumefaciens): <90%
growth inhibition, E. amylovora (E. amylovora): 100.00%

IRIKIRIKIRIK [compound 123]
growth inhibition, X. citri (X. citri): <90%
growth inhibition, E. coli (E. coli): <90%
growth inhibition, A. tumefaciens (A. tumefaciens): <90%
growth inhibition, E. amylovora (E. amylovora): <90%
